# Results: patent EP0540099A1, “Water soluble camptothecin derivatives” (priority 1991, dated 1993)
# Test system: HT-29 human colon tumor cells
# Test: Human colorectal adenocarcinoma HT-29 xenograft in vivo assay
# Details: female NU/NU mice; for in vivo Antitumor activity (tumor wt day-50/tumor wt day-14): HT-29 s.c. xenograft, optimal dose, subcutaneously twice a week for 5 weeks from day 14; for effect on tumor (stasis or regression): HT-29 xenograft, after 5 weeks of treatment (day 50), ratio of 1 = stasis, less than 1 = regression
# Procedure: Female NU/NU mice weighing 21 ± 2g, are used for this modified version of the test described by B.C. Giovanella, et al., Science, 246 1046 (1989). Control and test animals are injected subcutaneously in the sub-scapular region with a suspension of 10⁶ viable HT-29 human colon tumor cells on day 0. Tumors are allowed to grow for 2 weeks prior to drug administration. For each drug, several doses are chosen based on its in vitro activity against topoisomerase I. Each dose level group contains 8 animals. The test compounds are prepared in either 0.1 M acetate buffer, pH 5 (vehicle "a") or 87.5% phosphate buffered saline, 12.375% dimethylsulfoxide, and 0.125% Tween 80 (trademark of ICI America for polyoxyethylenesorbitan monooleate) (vehicle "b") and are administered subcutaneously twice a week for 5 weeks beginning on day 14. Doses are given on a mg/kg basis according to the mean body weight for each cage.
# Tumor weight is calculated from two perpendicular caliper measurements of the tumor using the formula, tumor weight = length x width² ÷ 2 [formula] in millimeters. For each animal, tumor weight is monitored over the course of the experiment. For each group, the results are expressed as the ratio of the mean tumor weight immediately after 5 weeks of treatment (day 50) divided by the mean tumor weight immediately before treatment (day 14). […] The criterion for antitumor activity is at least 50% inhibition of tumor growth after 5 weeks of dosing (day 50), giving a ratio of less than or equal to ten. TABLE B
# [1] = vehicle a: 0.1 M acetate buffer, pH 5
# [2] = vehicle b: 87.5% phosphate buffered saline, 12.375% dimethylsulfoxide, 0.125% Tween 80
SMILES,in vivo Antitumor activity (tumor wt day-50/tumor wt day-14) [1],effect on tumor (stasis or regression),in vivo Antitumor activity (tumor wt day-50/tumor wt day-14) [2]
"CC[C@@]1(O)C(=O)OCc2c1cc1n(c2=O)Cc2c-1nc1cc3c(cc1c2CN1CCC1)OCO3 [Example 20, 7-Azetidinomethylene-10, 11-methylenedioxy-20(S)-camptothecin]",1.5^a,–,–
"CC[C@@]1(O)C(=O)OCc2c1cc1n(c2=O)Cc2c-1nc1cc3c(cc1c2CN1CCN(C)CC1)OCO3 [Example 23, 7-(4-Methylpiperazinomethylene)-10, 11-methylenedioxy-20(S)-camptothecin]",0.5^a,tumor regression,–
"CC[C@@]1(O)C(=O)OCc2c1cc1n(c2=O)Cc2c-1nc1cc3c(cc1c2CN(C)C)OCO3 [Example 2, 7-Dimethylaminomethylene-10, 11-methylenedioxy-20(S)-camptothecin]",–,–,1.8^b
"CC[C@@]1(O)C(=O)OCc2c1cc1n(c2=O)Cc2c-1nc1cc3c(cc1c2CN1CCN(C)CC1)OCCO3 [Example 11, 7-(4-methylpiperazinomethylene)-10, 11-ethylenedioxy-20(S)-camptothecin]",0.6^a,tumor regression,–
"CC[C@@]1(O)C(=O)OCc2c1cc1n(c2=O)Cc2c-1nc1cc3c(cc1c2CN(C)C)OCCO3 [Example 4, 7-Dimethylaminomethylene-10, 11-ethylenedioxy-20(S)-camptothecin]",–,tumor stasis,–
"CCN(CC)Cc1c2c(nc3cc4c(cc13)OCCO4)-c1cc3c(c(=O)n1C2)COC(=O)[C@]3(O)CC [Example 14, 7-Diethylaminomethylene-10, 11-ethylenedioxy-20(S)-camptothecin]",2.0^a,–,–
"CC[C@@]1(O)C(=O)OCc2c1cc1n(c2=O)Cc2c-1nc1cc3c(cc1c2CN1CCC1)OCCO3 [Example 22, 7-Azetidinomethylene-10, 11-ethylenedioxy-20(S)-camptothecin]",1.6^a,–,–
"CC[C@@]1(O)C(=O)OCc2c1cc1n(c2=O)Cc2c-1nc1cc3c(cc1c2CN1CCOCC1)OCCO3 [Example 6, 7-Morpholinomethylene-10, 11-ethylenedioxy-20(S)-camptothecin]",–,tumor stasis,1.0^b
